Data on eleven molecules can be found in patent publication US8431579B2, “Capped pyrazinoylguanidine sodium channel blockers” (Parion Sciences, Inc., priority 2003, dated 2013).

System in one data set: not given
Experiment: not given
Settings: not given
Turning to `N=C(NCCCCc1ccc(OCC(=O)N(CCO)CCO)cc1)NC(=O)c1nc(Cl)c(N)nc1N`, the melting point lay in the range of 114 to 121.16 °C.

In another data set the target is T1, airway epithelial sodium currents (epithelial Na+ channel, ENaC) (Canis lupus familiaris, UniProt A0A8I3MKE6+A0A8I3Q679+Q95165).
T1 sequence (A0A8I3Q679 1-649): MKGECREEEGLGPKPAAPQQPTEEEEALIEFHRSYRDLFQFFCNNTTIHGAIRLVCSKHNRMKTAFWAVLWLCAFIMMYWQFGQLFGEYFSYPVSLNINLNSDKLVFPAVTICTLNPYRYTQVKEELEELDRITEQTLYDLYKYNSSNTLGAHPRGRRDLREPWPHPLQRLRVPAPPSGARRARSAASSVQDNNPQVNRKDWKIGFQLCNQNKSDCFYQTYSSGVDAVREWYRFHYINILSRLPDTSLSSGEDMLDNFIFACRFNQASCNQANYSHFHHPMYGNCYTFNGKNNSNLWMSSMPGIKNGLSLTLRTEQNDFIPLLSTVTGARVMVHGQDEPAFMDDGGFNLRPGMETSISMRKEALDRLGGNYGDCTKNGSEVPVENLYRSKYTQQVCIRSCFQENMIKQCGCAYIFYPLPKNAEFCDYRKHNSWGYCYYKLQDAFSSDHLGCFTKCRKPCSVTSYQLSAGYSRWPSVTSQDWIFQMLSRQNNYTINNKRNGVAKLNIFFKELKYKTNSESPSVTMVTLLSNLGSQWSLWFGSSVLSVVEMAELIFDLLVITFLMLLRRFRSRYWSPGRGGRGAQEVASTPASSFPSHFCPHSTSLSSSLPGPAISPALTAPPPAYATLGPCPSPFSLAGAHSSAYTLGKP
T1 sequence (Q95165 1-641): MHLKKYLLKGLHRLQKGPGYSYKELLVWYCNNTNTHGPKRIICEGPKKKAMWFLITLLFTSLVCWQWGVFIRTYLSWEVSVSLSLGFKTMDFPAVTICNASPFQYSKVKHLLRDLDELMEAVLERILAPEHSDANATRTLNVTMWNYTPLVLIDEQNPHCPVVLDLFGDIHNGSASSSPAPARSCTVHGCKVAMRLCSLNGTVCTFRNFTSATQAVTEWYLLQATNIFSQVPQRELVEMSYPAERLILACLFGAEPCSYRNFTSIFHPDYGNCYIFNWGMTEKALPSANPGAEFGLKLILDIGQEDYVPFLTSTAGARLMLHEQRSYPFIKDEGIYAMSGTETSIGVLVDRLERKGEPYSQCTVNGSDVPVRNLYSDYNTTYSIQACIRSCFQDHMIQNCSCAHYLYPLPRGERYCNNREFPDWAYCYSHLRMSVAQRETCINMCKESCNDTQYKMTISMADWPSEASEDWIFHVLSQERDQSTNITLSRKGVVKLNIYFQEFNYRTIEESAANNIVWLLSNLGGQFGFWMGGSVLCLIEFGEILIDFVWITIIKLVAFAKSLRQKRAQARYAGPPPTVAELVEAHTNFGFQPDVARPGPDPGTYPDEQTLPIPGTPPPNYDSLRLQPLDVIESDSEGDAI
T1 sequence (A0A8I3MKE6 1-646): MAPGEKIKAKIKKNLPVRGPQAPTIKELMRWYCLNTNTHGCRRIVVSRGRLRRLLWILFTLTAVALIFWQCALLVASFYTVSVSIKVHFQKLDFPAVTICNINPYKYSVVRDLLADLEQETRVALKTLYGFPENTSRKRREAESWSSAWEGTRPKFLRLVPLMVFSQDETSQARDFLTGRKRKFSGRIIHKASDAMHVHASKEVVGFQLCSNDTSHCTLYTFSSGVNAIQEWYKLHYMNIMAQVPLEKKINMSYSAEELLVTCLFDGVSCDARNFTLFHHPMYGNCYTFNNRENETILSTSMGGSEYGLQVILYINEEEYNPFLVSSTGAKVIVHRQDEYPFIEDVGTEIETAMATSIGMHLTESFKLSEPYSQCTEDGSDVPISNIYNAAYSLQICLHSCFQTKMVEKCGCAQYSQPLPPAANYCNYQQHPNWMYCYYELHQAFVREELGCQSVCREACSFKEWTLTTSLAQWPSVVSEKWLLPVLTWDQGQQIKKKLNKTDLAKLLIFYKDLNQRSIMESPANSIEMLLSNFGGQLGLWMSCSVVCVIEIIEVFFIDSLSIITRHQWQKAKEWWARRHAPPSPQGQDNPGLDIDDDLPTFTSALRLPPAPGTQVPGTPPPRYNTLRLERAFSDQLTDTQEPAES
Kind of data set: In vitro measure of sodium channel blocking activity (short circuit current, airway epithelial monolayers in Ussing chambers). The data set is classed as cell-based, human, dog, sheep or rodent. Particulars: lumenal drug inhibition of ISC in airway epithelial monolayers, value ± spread, n in same cell. The protocol: In Vitro Measure of Sodium Channel Blocking Activity and Reversibility
One assay used to assess mechanism of action and/or potency of the compounds of the present invention involves the determination of lumenal drug inhibition of airway epithelial sodium currents measured under short circuit current (ISC) using airway epithelial monolayers mounted in Ussing chambers. Cells obtained from freshly excised human, dog, sheep or rodent airways are seeded onto porous 0.4 micron Snapwell™ Inserts (CoStar), cultured at air-liquid interface (ALI) conditions in hormonally defined media, and assayed for sodium transport activity (ISC) while bathed in Krebs Bicarbonate Ringer (KBR) in Using chambers. All test drug additions are to the lumenal bath with half-log dose addition protocols (from 1×10^−11 M to 3×10^−5M), and the cumulative change in ISC (inhibition) recorded. All drugs are prepared in dimethyl sulfoxide as stock solutions at a concentration of 1×10^−2 M and stored at −20° C. Eight preparations are typically run in parallel; two preparations per run incorporate amiloride and/or benzamil as positive controls. After the maximal concentration (5×10^−5 M) is administered, the lumenal bath is exchanged three times with fresh drug-free KBR solution, and the resultant ISC measured after each wash for approximately 5 minutes in duration. Reversibility is defined as the percent return to the baseline value for sodium current after the third wash. All data from the voltage clamps are collected via a computer interface and analyzed off-line.
Dose-effect relationships for all compounds are considered and analyzed by the Prism 3.0 program. IC50 values, maximal effective concentrations, and reversibility are calculated and compared to amiloride and benzamil as positive controls.
`N=C(NCCCCc1ccc(OCC(O)COCC(O)CO)cc1)NC(=O)c1nc(Cl)c(N)nc1N` (centres unmarked) [compound 15143]: the EC50 is 7 ± 3 nM.

As to `N#CCOc1ccc(CCCCNC(=N)NC(=O)c2nc(Cl)c(N)nc2N)cc1` [compound 16208], the EC50 came to 11 ± 4 nM.

Molecule `CN(C)C(=O)COc1ccc(CCCCNC(=N)NC(=O)c2nc(Cl)c(N)nc2N)cc1` [compound 16313] displayed an EC50 of 15 ± 4 nM.

For the molecule `N=C(NCCCCc1ccc(OCC(=O)NCC(N)=O)cc1)NC(=O)c1nc(Cl)c(N)nc1N` [compound 16314], the midpoint of the response, the EC50, lay at 13 ± 2 nM.

The molecule `N=C(NCCCCc1ccc(OCC(=O)Nc2ncc[nH]2)cc1)NC(=O)c1nc(Cl)c(N)nc1N` [compound 16437] showed an EC50 of 13 ± 7 nM.

For the molecule `N=C(NCCCCc1ccc(OCC(=O)Nc2ccccc2)cc1)NC(=O)c1nc(Cl)c(N)nc1N` [compound 17482], a half-maximal response (EC50) required 16 ± 4 nM.

For the molecule `CN(C)C(=S)Oc1ccc(CCCCNC(=N)NC(=O)c2nc(Cl)c(N)nc2N)cc1` [compound 17846], the EC50 was determined as 11 ± 6 nM.

`N=C(NCCCCc1ccc(OCCCc2nnn[nH]2)cc1)NC(=O)c1nc(Cl)c(N)nc1N` [compound 17926] came in with an EC50 of 25 ± 9 nM.

Molecule `CC(C)[C@H](NS(=O)(=O)c1ccc(CCCCNC(=N)NC(=O)c2nc(Cl)c(N)nc2N)cc1)C(N)=O` [compound 19008] displayed an EC50 of 9 ± 1 nM.

Regarding `N=C(NCCCCc1ccc(OCCCc2ncc[nH]2)cc1)NC(=O)c1nc(Cl)c(N)nc1N` [compound 23022], the EC50 was 12 ± 3 nM.

The term melting point denotes the temperature of the solid-liquid transition. The term EC50 denotes the concentration needed to bring the measured effect to its halfway point. High values mean lower potency in that assay, low ones higher potency in that assay.
